# Measurements: patent publication US10919889B2, “Chiral heterocyclic compound with hedgehog pathway antagonist activity, method and use thereof” (SUZHOU KINTOR PHARMACEUTICALS, INC., priority 2016, dated 2021)
# Assays:
# [1] = biological target: T1, CYP2D6 (Homo sapiens, UniProt P10635); experiment: CYP liver enzyme inhibition experiment, CYP-2D6; format: in vitro ADME; details: human liver microsomes, pH 7.4, probe dextromethorphan, test compound 10 μM, HLM, dextromethorphan 5 μM, read-out: CYP-2D6 Inhibitory rate (%)
# T1 construct: containing HLM (0.2 mg/mL), phosphate buffer (100 mM, pH 7.4); from tissue; host or cells: liver microsomes (HLM)
# T1 sequence (P10635 whole entry): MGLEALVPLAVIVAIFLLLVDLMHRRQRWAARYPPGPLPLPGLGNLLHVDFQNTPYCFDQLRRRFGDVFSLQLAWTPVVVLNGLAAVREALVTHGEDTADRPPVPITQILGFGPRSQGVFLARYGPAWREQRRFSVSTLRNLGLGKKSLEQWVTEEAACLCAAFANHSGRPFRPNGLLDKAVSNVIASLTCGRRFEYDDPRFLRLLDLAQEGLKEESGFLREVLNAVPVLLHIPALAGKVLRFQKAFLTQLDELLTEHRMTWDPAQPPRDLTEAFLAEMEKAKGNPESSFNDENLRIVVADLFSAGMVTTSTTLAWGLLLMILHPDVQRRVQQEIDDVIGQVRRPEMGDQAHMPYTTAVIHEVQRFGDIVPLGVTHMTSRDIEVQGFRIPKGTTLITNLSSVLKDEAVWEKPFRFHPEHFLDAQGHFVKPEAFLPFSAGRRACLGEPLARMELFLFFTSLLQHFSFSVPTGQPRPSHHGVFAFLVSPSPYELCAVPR
# Method: (§1) The five major CYP isozymes and their respective probe substrates were: CYP-1A2 (phenacetin, 30 μM), CYP-2C9 (toluenesulfonylurea, 100 μM), CYP-2C19 40 μM), CYP-2D6 (dextromethorphan, 5 μM) and CYP-3A4 (midazolam, 1 μM). All probes were used close to or below their KMS concentrations. The mixture (200 μL) was incubated in a 37° C. constant temperature water bath, containing HLM (0.2 mg/mL), phosphate buffer (100 mM, pH 7.4), NADPH […], test compound (10 μM) and the respective CYP probe substrate. Before the reaction with NADPH, the mixture was pre-incubated for 10 minutes to undergo inhibitor-enzyme interaction. After a specific period of time (10 minutes for CYP-1A2, 2D6 and 3A4; 30 minutes for CYP-2C9 and 2C19), the reaction was quenched by addition to 100 μL solution of appropriate amount of cold acetonitrile. Reaction system was centrifuged and injected into the LC-MS/MS to quantify the concentration of specific metabolite formed from the substrate and the CYP enzyme. Each test compound was tested at least three times independently. […]
# (§2) Before the start of the reaction with NADPH, the above mixture can be pre-incubated for about 10 minutes to allow inhibitor-enzyme interactions. […] The quenched mixture can be centrifuged, and aliquots of the mixture can then be analyzed by LC-MS/MS to quantify the concentrations of specific metabolic products for each CYP isozyme. […]
# [2] = biological target: T2, CYP1A2 (Homo sapiens, UniProt P05177); experiment: CYP liver enzyme inhibition experiment, CYP-1A2; format: in vitro ADME; details: human liver microsomes, pH 7.4, probe phenacetin, test compound 10 μM, HLM, phenacetin 30 μM, read-out: CYP-1A2 Inhibitory rate (%)
# T2 construct: containing HLM (0.2 mg/mL), phosphate buffer (100 mM, pH 7.4); from tissue; host or cells: liver microsomes (HLM)
# T2 sequence (P05177 1-516): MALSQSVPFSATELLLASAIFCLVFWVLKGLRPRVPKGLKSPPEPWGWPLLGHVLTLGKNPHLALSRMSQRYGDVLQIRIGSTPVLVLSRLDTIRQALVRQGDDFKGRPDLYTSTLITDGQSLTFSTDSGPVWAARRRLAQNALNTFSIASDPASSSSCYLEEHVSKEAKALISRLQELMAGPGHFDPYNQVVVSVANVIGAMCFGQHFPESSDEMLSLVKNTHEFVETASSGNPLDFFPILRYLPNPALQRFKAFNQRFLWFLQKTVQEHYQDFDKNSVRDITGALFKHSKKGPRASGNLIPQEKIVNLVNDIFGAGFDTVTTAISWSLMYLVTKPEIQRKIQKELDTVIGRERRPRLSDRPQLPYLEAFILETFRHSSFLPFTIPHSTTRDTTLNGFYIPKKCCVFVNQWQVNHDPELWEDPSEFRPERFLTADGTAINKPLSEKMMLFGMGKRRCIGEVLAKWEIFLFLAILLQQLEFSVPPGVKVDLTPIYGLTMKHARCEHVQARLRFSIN
# Method: as §1, §2
Structure (SMILES),"inhibition at 10 min, 10 µM [1] [%]","inhibition at 10 min, 10 µM [2] [%]"
Cc1cnc(-c2cc(N3CCc4nc(N5CCC(O)CC5)ncc4C3C)ncc2Cl)c(C)c1 (racemic) [B],30 ± 1.7,21 ± 1.3
"Cc1cnc(-c2cc(N3CCc4nc(N5CCC(O)CC5)ncc4[C@H]3C)ncc2Cl)c(C)c1 [Compound B1, (R)-1-(6-(5′-chloro-3,5-dimethyl-[2,4′-bipyridin]-2′-yl)-5-methyl-5,6,7,8-tetrahydropyrido[4,3-d]pyrimidin-2-yl)piperidin-4-ol]",24 ± 3.5,22 ± 15
